Data from US9499553B2 (CHUGAI SEIYAKU KABUSHIKI KAISHA, priority 2013, dated 2016).

How the values were obtained:
[1] = system: adenine-induced renal failure rat; test: Suppressive effect on rise in serum phosphorus concentration of adenine-induced renal failure rat (0.1% in feed, 3 days); assay type: in vivo; settings: feed or water, 72 h, 0.1% of mass concentration in feed, read-out: Rate of inhibition (%) (suppression of a rise in serum phosphorus concentration)
Excerpt: Test Example 5: Suppressive Effect on Rise in Serum Phosphorus Concentration of Adenine-Induced Renal Failure Rat
Adenine was forcedly administered orally to each Wistar male rat (7-8 weeks old) to impair renal functions and thereby prepare a hyperphosphatemia model (Katsumata K, Kusano K, Hirata M, Tsunemi K, Nagano N, Burke S K, Fukushima N. Sevelamer hydrochloride prevents ectopic calcification and renal osteodystrophy in chronic renal failure rats. Kidney Int. 2003 August; 64 (2): 441-50). Each test compound was mixed at a ratio of 0.1% of mass concentration with feed. The animal was fed with a given amount of the feed for 3 days. A group given feed non-supplemented with a test compound was used as a reference pathological group, and an adenine-unadministered group given feed non-supplemented with a test compound was used as a normal group. […] Serum phosphorus concentrations were measured by the Fiske-Subbarow method. The rate of suppression of a rise in serum phosphorus concentration was determined according to the following expression: Rate (%) of suppression of a rise in serum phosphorus concentration=(1−[(Serum phosphorus concentration of the test compound-treated pathological group)−(Serum phosphorus concentration of the normal group)]/[(Serum phosphorus concentration of the reference pathological group)−(Serum phosphorus concentration of the normal group)])×100

[2] = biological target: T1, human PiT-2 (Homo sapiens, UniProt Q08357); test: Inhibitory effect on 33PO4 uptake into human PiT-2-expressing CHO cells; assay type: cell-based; settings: pH 6.5, read-out: IC50 against 33PO4 uptake into human PiT-2-expressing cells
T1 construct: expressed in transfected cells; host or cells: CHO cells
T1 sequence (Q08357 1-652): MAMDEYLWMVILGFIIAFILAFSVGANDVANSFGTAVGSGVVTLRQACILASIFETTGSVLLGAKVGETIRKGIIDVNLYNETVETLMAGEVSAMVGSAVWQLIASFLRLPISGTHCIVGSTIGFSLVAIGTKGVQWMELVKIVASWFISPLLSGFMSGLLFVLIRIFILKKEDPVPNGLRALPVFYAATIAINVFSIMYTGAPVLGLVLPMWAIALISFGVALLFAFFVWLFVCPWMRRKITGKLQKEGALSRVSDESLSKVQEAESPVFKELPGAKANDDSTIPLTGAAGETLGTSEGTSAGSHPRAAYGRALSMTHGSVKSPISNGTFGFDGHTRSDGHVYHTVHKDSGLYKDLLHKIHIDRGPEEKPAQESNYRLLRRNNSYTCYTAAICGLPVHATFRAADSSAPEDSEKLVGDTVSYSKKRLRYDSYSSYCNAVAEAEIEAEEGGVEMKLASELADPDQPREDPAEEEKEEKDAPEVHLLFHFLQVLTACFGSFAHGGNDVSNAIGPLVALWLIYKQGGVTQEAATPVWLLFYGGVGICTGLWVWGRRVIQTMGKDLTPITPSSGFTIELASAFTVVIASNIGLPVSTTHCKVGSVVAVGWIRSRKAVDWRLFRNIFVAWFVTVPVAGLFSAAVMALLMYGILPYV
Experimental: Test Example 4: Inhibitory Effect on ^33PO4 Uptake into Human PiT-2-Expressing Cell
CHO cells were transfected with human PiT-2 expression plasmids or empty vectors to prepare human PiT-2-expressing cells and empty vector-expressing cells. The human PiT-2-expressing cells or the empty vector-expressing cells were inoculated to a 96-well plate and incubated overnight in a CO2 incubator. […] After a given time, a 1/20 volume of buffer A containing ^33PO4 was added thereto and reacted at room temperature. After washing with ice-cold buffer A, a liquid scintillator was added to each reaction mixture, and the amount of ^33PO4 uptake was measured using TopCount. The rate of inhibition was determined according to the following expression: Rate (%) of inhibition=(1−(Amount of ^33PO4 uptake in the compound-supplemented well containing the human PiT-2-expressing cells−Amount of ^33PO4 uptake in the compound-supplemented well containing the empty vector-expressing cells)/(Amount of ^33PO4 uptake in the DMSO-supplemented well containing the human PiT-2-expressing cells −Amount of ^33PO4 uptake in the DMSO-supplemented well containing the empty vector-expressing cells))×100

[3] = biological target: T2, human NaPi-IIb (Homo sapiens, UniProt O95436); test: Inhibitory effect on 33PO4 uptake into human NaPi-IIb-expressing CHO cells; assay type: cell-based; settings: read-out: IC50
T2 construct: expressed in transfected cells
T2 sequence (O95436 1-690): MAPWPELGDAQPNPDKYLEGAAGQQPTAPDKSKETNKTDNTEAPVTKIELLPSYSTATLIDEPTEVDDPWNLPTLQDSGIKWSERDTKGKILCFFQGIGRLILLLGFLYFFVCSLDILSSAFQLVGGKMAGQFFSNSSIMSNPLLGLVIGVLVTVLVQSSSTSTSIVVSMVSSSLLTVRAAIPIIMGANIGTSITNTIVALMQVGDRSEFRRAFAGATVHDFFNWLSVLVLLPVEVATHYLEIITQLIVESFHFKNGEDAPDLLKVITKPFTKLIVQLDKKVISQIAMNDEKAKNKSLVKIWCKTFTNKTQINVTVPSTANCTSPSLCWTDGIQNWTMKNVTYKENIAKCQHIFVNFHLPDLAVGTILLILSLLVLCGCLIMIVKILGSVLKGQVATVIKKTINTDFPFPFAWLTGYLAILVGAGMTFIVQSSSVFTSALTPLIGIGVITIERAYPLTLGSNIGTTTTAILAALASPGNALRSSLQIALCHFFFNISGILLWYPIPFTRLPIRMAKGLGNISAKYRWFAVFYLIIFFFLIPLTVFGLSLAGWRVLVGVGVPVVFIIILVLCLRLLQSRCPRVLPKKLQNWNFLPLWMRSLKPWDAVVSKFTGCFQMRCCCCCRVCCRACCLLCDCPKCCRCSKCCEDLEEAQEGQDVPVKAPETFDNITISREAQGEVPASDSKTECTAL
Summary of the method: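 Uptake of ³³PO4 was measured by scintillation counting after ice-cold buffer A washes. Cells were CHO stably expressing human NaPi-IIb, seeded overnight, and exposed to ³³PO4 in buffer A at room temperature.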

**Q.** `C[C@]12CCCN1N(Cc1cccc(F)c1F)C(=O)C(C(=O)Nc1ccc(C(F)(F)F)cc1-c1cc(C(F)(F)F)ncn1)=C2O` [Example 21, (4aR)-1-[(2,3-Difluoro-phenyl)methyl]-4-hydroxy-4a-methyl-2-oxo-N-[4-(trifluoromethyl)-2-[6-(trifluoromethyl)pyrimidin-4-yl]phenyl]-6,7-dihydro-5H-pyrrolo [1,2-b]pyridazine-3-carboxamide] was tested. Which inhibition in vivo at 0.1 %, 0.1 % in feed [1] did it give?
**A.** 24%

**Q.** What about the IC50 [2] of the same compound?
**A.** 3.6 µM

**Q.** What about the IC50 [3] of the same compound?
**A.** 2.8 µM

**Q.** Which results are given for `C[C@]12CCCN1N(Cc1ccc(OCCN3CCOCC3)c(F)c1F)C(=O)C(C(=O)Nc1ccc(C(F)(F)F)cc1-c1ccnc(C#N)c1)=C2O` [Example 52, (4aR)-N-[2-(2-Cyanopyridin-4-yl)-4-(trifluoromethyl)phenyl]-1-[[2,3-difluoro-4-(2-morpholin-4-ylethoxy)phenyl]methyl]-4-hydroxy-4a-methyl-2-oxo-6,7-dihydro-5H-pyrrolo[1,2-b]pyridazine-3-carboxamide]?
**A.** inhibition in vivo at 0.1 %, 0.1 % in feed [1]: 20%; IC50 [3]: 16.8 µM
